From ChEMBL document CHEMBL1201862, “PubChem BioAssay data set” (2004)
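Step 1: Grow cells in 96-well plates. Step 2: Expose to compound for 48 hours at 5 concentrations. Step 3: Interpolate endpoints linearly; if unreached, use highest concentration. The concentration for 50% growth inhibition is given as GI50.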 Calls of active or inactive are those of the source. Rule as the data show it: active = GI50 up to about 1.1 µM and inactive = higher.

What was measured:
Experiment in all cases: DTP human tumour cell line panel, 48 h
[1] = test system: 786-0
[2] = test system: A498
[3] = test system: A549
[4] = test system: ACHN
[5] = test system: BT-549
[6] = test system: CAKI-1
[7] = test system: CCRF-CEM
[8] = test system: COLO 205
[9] = test system: DU-145
[10] = test system: EKVX
[11] = test system: HCC 2998
[12] = test system: HCT-116
[13] = test system: HCT-15
[14] = test system: HL-60
[15] = test system: HOP-62
[16] = test system: HT-29
[17] = test system: Hs-578T
[18] = test system: IGROV-1
[19] = test system: K562
[20] = test system: KM12
[21] = test system: LOX IMVI
[22] = test system: M14
[23] = test system: MCF7
[24] = test system: MDA-MB-231
[25] = test system: MDA-MB-435
[26] = test system: MDA-N
[27] = test system: MOLT-4
[28] = test system: Malme-3M
[29] = test system: NCI-H226
[30] = test system: NCI-H23
[31] = test system: NCI-H460
[32] = test system: NCI-H522
[33] = test system: NCI/ADR-RES
[34] = test system: OVCAR-3
[35] = test system: OVCAR-4
[36] = test system: OVCAR-5
[37] = test system: OVCAR-8
[38] = test system: PC-3
[39] = test system: RPMI-8226
[40] = test system: RXF 393
[41] = test system: SF-268
[42] = test system: SF-295
[43] = test system: SF-539
[44] = test system: SK-MEL-28
[45] = test system: SK-MEL-2
[46] = test system: SK-MEL-5
[47] = test system: SK-OV-3
[48] = test system: SN12C
[49] = test system: SNB-19
[50] = test system: SNB-75
[51] = test system: SR
[52] = test system: SW-620
[53] = test system: T47D
[54] = test system: TK-10
[55] = test system: U-251
[56] = test system: UACC-257
[57] = test system: UACC-62
[58] = test system: UO-31
[59] = test system: HOP-92

Which GI50 [1] does the source give for `COc1cc2cccc(N)c2cc1OC` here?
Its GI50 is > 100 µM (inactive).

And the GI50 [2]?
The GI50 was > 100 µM (inactive).

And the GI50 [3]?
Its GI50 is > 100 µM (inactive).

And the GI50 [4]?
The GI50 was > 100 µM (inactive).

And the GI50 [5]?
Its GI50 is > 66.7 µM (inactive).

What about the GI50 [6] of the same compound?
Its GI50 is > 100 µM (inactive).

What about the GI50 [7] of the same compound?
The GI50 was > 80.5 µM (inactive).

And the GI50 [8]?
The GI50 was > 100 µM (inactive).

And the GI50 [9]?
The GI50 was > 100 µM (inactive).

What about the GI50 [10] of the same compound?
The GI50 was > 100 µM (inactive).

What about the GI50 [11] of the same compound?
Its GI50 is > 100 µM (inactive).

What about the GI50 [12] of the same compound?
Its GI50 is > 100 µM (inactive).

And the GI50 [13]?
The GI50 was > 100 µM.

And the GI50 [14]?
Its GI50 is > 100 µM (inactive).

What about the GI50 [15] of the same compound?
Its GI50 is > 100 µM (inactive).

And the GI50 [16]?
The GI50 was > 100 µM (inactive).

What about the GI50 [17] of the same compound?
The GI50 was > 100 µM (inactive).

And the GI50 [18]?
Its GI50 is > 100 µM (inactive).

What about the GI50 [19] of the same compound?
Its GI50 is > 100 µM (inactive).

What about the GI50 [20] of the same compound?
Its GI50 is > 100 µM (inactive).

And the GI50 [21]?
The GI50 was > 100 µM (inactive).

What about the GI50 [22] of the same compound?
The GI50 was > 100 µM (inactive).

What about the GI50 [23] of the same compound?
Its GI50 is > 100 µM (inactive).

And the GI50 [24]?
Its GI50 is > 100 µM (inactive).

What about the GI50 [25] of the same compound?
Its GI50 is > 100 µM (inactive).

What about the GI50 [26] of the same compound?
The GI50 was > 100 µM (inactive).

And the GI50 [27]?
Its GI50 is > 100 µM (inactive).

What about the GI50 [28] of the same compound?
Its GI50 is > 100 µM (inactive).

What about the GI50 [29] of the same compound?
Its GI50 is > 100 µM (inactive).

What about the GI50 [30] of the same compound?
The GI50 was > 100 µM (inactive).

What about the GI50 [31] of the same compound?
The GI50 was > 100 µM (inactive).

What about the GI50 [32] of the same compound?
The GI50 was > 100 µM (inactive).

And the GI50 [33]?
Its GI50 is > 100 µM (inactive).

And the GI50 [34]?
The GI50 was > 100 µM (inactive).

What about the GI50 [35] of the same compound?
The GI50 was > 100 µM (inactive).

And the GI50 [36]?
The GI50 was > 100 µM (inactive).

What about the GI50 [37] of the same compound?
Its GI50 is > 100 µM (inactive).

What about the GI50 [38] of the same compound?
Its GI50 is > 100 µM (inactive).

And the GI50 [39]?
The GI50 was > 100 µM (inactive).

And the GI50 [40]?
The GI50 was > 100 µM (inactive).

What about the GI50 [41] of the same compound?
The GI50 was > 100 µM (inactive).

And the GI50 [42]?
Its GI50 is > 100 µM (inactive).

What about the GI50 [43] of the same compound?
Its GI50 is > 100 µM (inactive).

And the GI50 [44]?
Its GI50 is > 100 µM (inactive).

What about the GI50 [45] of the same compound?
The GI50 was > 100 µM (inactive).

And the GI50 [46]?
Its GI50 is > 100 µM (inactive).

What about the GI50 [47] of the same compound?
The GI50 was > 100 µM (inactive).

What about the GI50 [48] of the same compound?
Its GI50 is > 100 µM (inactive).

And the GI50 [49]?
The GI50 was > 100 µM (inactive).

What about the GI50 [50] of the same compound?
The GI50 was > 100 µM (inactive).

What about the GI50 [51] of the same compound?
Its GI50 is > 45.3 µM (inactive).

And the GI50 [52]?
The GI50 was > 100 µM (inactive).

And the GI50 [53]?
Its GI50 is > 100 µM (inactive).

What about the GI50 [54] of the same compound?
The GI50 was > 26.3 µM (inactive).

What about the GI50 [55] of the same compound?
The GI50 was > 100 µM (inactive).

What about the GI50 [56] of the same compound?
Its GI50 is > 100 µM (inactive).

What about the GI50 [57] of the same compound?
Its GI50 is > 100 µM (inactive).

What about the GI50 [58] of the same compound?
The GI50 was > 100 µM (inactive).

With `c1ccc2c(c1)nc1n2CCNC1` as the compound, how does the GI50 [1] read?
The GI50 was > 100 µM (inactive).

And the GI50 [2]?
The GI50 was > 100 µM (inactive).

What about the GI50 [3] of the same compound?
The GI50 was > 100 µM (inactive).

And the GI50 [4]?
Its GI50 is > 100 µM (inactive).

What about the GI50 [5] of the same compound?
The GI50 was > 100 µM (inactive).

What about the GI50 [6] of the same compound?
Its GI50 is > 100 µM (inactive).

And the GI50 [7]?
Its GI50 is > 100 µM (inactive).

And the GI50 [8]?
The GI50 was > 100 µM (inactive).

And the GI50 [9]?
The GI50 was > 100 µM (inactive).

And the GI50 [10]?
The GI50 was > 100 µM (inactive).

And the GI50 [11]?
The GI50 was > 100 µM (inactive).

And the GI50 [12]?
The GI50 was > 100 µM (inactive).

And the GI50 [13]?
The GI50 was > 100 µM.

What about the GI50 [14] of the same compound?
Its GI50 is > 100 µM (inactive).

What about the GI50 [15] of the same compound?
The GI50 was > 100 µM (inactive).

What about the GI50 [59] of the same compound?
The GI50 was > 100 µM (inactive).

What about the GI50 [16] of the same compound?
Its GI50 is > 100 µM (inactive).

And the GI50 [17]?
The GI50 was > 100 µM (inactive).

And the GI50 [18]?
Its GI50 is > 100 µM (inactive).

And the GI50 [19]?
The GI50 was > 100 µM (inactive).

What about the GI50 [20] of the same compound?
The GI50 was > 100 µM (inactive).

What about the GI50 [21] of the same compound?
Its GI50 is > 100 µM (inactive).

What about the GI50 [22] of the same compound?
Its GI50 is > 100 µM (inactive).

And the GI50 [23]?
Its GI50 is > 100 µM (inactive).

And the GI50 [24]?
Its GI50 is > 100 µM (inactive).

And the GI50 [25]?
Its GI50 is > 100 µM (inactive).

What about the GI50 [26] of the same compound?
The GI50 was > 100 µM (inactive).

What about the GI50 [27] of the same compound?
The GI50 was > 100 µM (inactive).

What about the GI50 [29] of the same compound?
Its GI50 is > 100 µM (inactive).

What about the GI50 [30] of the same compound?
Its GI50 is > 100 µM (inactive).

And the GI50 [31]?
The GI50 was > 100 µM (inactive).

What about the GI50 [33] of the same compound?
The GI50 was > 100 µM (inactive).

What about the GI50 [34] of the same compound?
The GI50 was 63 µM (inactive).

What about the GI50 [35] of the same compound?
Its GI50 is > 100 µM (inactive).

What about the GI50 [36] of the same compound?
The GI50 was > 100 µM (inactive).

And the GI50 [37]?
The GI50 was > 100 µM (inactive).

What about the GI50 [38] of the same compound?
The GI50 was > 100 µM (inactive).

What about the GI50 [39] of the same compound?
Its GI50 is > 100 µM (inactive).

What about the GI50 [40] of the same compound?
Its GI50 is > 100 µM (inactive).

And the GI50 [41]?
Its GI50 is > 100 µM (inactive).

What about the GI50 [42] of the same compound?
The GI50 was > 100 µM (inactive).

And the GI50 [43]?
Its GI50 is > 100 µM (inactive).

And the GI50 [44]?
The GI50 was > 100 µM (inactive).

And the GI50 [45]?
The GI50 was > 100 µM (inactive).

And the GI50 [46]?
Its GI50 is > 100 µM (inactive).

And the GI50 [47]?
The GI50 was > 100 µM (inactive).

And the GI50 [48]?
Its GI50 is > 100 µM (inactive).

What about the GI50 [49] of the same compound?
Its GI50 is > 100 µM (inactive).

And the GI50 [50]?
Its GI50 is > 100 µM (inactive).

What about the GI50 [51] of the same compound?
The GI50 was > 100 µM (inactive).

And the GI50 [52]?
The GI50 was > 100 µM (inactive).

And the GI50 [53]?
The GI50 was > 100 µM (inactive).

What about the GI50 [54] of the same compound?
Its GI50 is > 100 µM (inactive).

And the GI50 [55]?
Its GI50 is > 100 µM (inactive).

What about the GI50 [56] of the same compound?
Its GI50 is > 100 µM (inactive).

And the GI50 [57]?
Its GI50 is > 100 µM (inactive).

What about the GI50 [58] of the same compound?
The GI50 was > 100 µM (inactive).
